From patent US20160002316A1, “SERPINS: METHODS OF THERAPEUTIC BETA-CELL REGENERATION AND FUNCTION” (SANOFI, priority 2013, published 2016)

Tests used:
[1] = tested on: islet β-cells; assay: Daily oral gavage of GW311616A for 2 weeks, β-cell mass and replication; assay type: in vivo, mouse; conditions: 2 mg/kg/day
Protocol: (§1) Five to six-week old mice were administrated with Sivelestat or GW311616A for 2 weeks. Islet β-cell and α-cell replication was assessed by immunostaining. A) Schematic of the experimental protocol of Sivelestat administration. B) Quantification of pancreatic sections harvested from animals stimulated with Sivelestat and immunostained for insulin/BrdU/DAPI or glucagon/BrdU/DAPI. C) Schematic of the experimental protocol of GW311616A delivery. D) Quantification of pancreatic sections dissected from GW311616A-treated males and immunostained for insulin/BrdU/DAPI or glucagon/BrdU/DAPI.
Five to six-week old male mice were daily gavaged with GW311616A or vehicle (water) for 2 weeks. Mice were injected during the second week with BrdU (100 mg/kg Body weight) and sacrificed 5 hour after last injection of BrdU. Pancreases and other tissues were harvested for morphometric studies. A) Schematic of the experimental protocol of GW311616 administration. B) Pancreatic sections harvested from animals stimulated with GW311616 were immunostained for insulin/BrdU/DAPI (upper panel) or glucagon/BrdU/DAPI (lower panel). C) Quantification of β-cell mass. D) Quantification of insulin+BrdU+ cells. E) Quantification of glucagon+BrdU+ cells. F-G) Representative images and quantification of nuclei BrdU+ in liver, kidney, spleen, visceral and subcutaneous adipose tissue and skeletal muscle tissue.
To explore whether increased β-cell replication secondary to enhanced SerpinB1 activity can be recapitulated in vivo, we used pharmacological compounds Sivelestat (Kawabata, et al., 1991) and GW311616A (Macdonald, et al., 2001), that are selective inhibitors of elastase, one of the major substrates of SerpinB1. Using osmotic pumps, we delivered a continuous infusion of Sivelestat for a 2-week period followed by evaluating the number of replicating β-cells by BrdU incorporation (FIG. 20A). […] In a second approach we gavaged mice with the NE inhibitor, GW311616A, at a dose of 2 mg/kg/day for 2 weeks (FIG. 20C and FIG. 22 A). […] Moreover, cell proliferation was not increased in extra-pancreatic tissues including liver, skeletal muscle, visceral and subcutaneous adipose tissue, spleen and kidney (FIGS. 22 F & G).
For Sivelestat administration, mice were anesthetized, and osmotic pumps (ALZET) containing 100 μl of either vehicle or Sivelestat (Santa Cruz) were implanted subcutaneously. Sivelestat was dissolved in 50% DMSO and was administered at a dose of 150 or 300 μg/kg/day. Control mice were infused with DMSO 50% alone. GW311616A was administered into mice by daily oral gavage for two weeks. Mice received either GW311616A (2 mg/kg body weight) or vehicle.

[2] = tested on: primary mouse islets β-cells; assay: Mouse islets cultured with recombinant SerpinB1, ovalbumin or elastase inhibitors, Ki67 immunostaining; assay type: cell-based; conditions: for mouse islet β-cell proliferation in vitro: Sivelestat (50 μg/ml) or GW311616A (100 μg/ml), FIG. 25 C
Protocol: Five to six-week old male mouse islets were cultured in the presence of different molecules for 48 h. Islet β-cell replication was assessed by Ki67 immunostaining studies. A) Representative images of islets stimulated with 100 or 1000 ng/ml of human recombinant SerpinB1. B) Quantification of Ki67+ insulin+ cells in islets stimulated with 1 to 1000 ng/ml of rSerpinB1 or 1000 ng/ml of ovalbumin (OVA). C) Representative images (left panel) and quantification (right panel) of Ki67+ insulin+ islet cells stimulated with Sivelestat (50 μg/ml) or GW311616A (100 μg/ml). D) Representative images of human islets stimulated for 24 hours with Sivelestat or GW311616A or control conditions.
To test whether SerpinB1 is a β-cell growth factor, we cultured freshly isolated primary mouse islets in presence of various doses of recombinant human SerpinB1 or ovalbumin (SerpinB14) and evaluated β-cell proliferation by Ki67 immunofluorescent staining (known to those of ordinary skill in the art).
To address whether SerpinB1 acts directly to stimulate β-cell proliferation, we cultured mouse islets in the presence of various doses of human recombinant SerpinB1 and a control (ovalbumin), and evaluated β-cell proliferation by Ki67 immunofluorescence staining (FIG. 21 A).
(§2) A major substrate of SerpinB1 is neutrophil elastase. To investigate whether the proliferative action of SerpinB1 is mediated by antagonizing neutrophil elastase activity, we assessed the ability of the neutrophil elastase inhibitor, Sivelestat (Sivelestat is the International Nonproprietary Name (INN) as given by the World Health Organization (WHO); the chemical name is: N-{2-[({4-[(2,2-dimethylpropanoyl)oxy]phenyl}sulfonyl)amino]benzoyl}glycine), to stimulate islet β-cell proliferation in vitro.

[3] = tested on: human islet β cells; assay: Human islet studies, Ki67+ insulin+ cells; assay type: cell-based; conditions: human islets, 24 hr
Protocol: Human islets were obtained from the Integrated Islet Distribution Program. All studies and protocols used were approved by the Joslin Diabetes Center's Committee on Human Studies (CHS#5-05). Upon arrival, islets were cultured overnight in Miami Media #1A (Cellgro). The islets were then starved in Final Wash/Culture Media (Cellgro, Manassas, Va.) for 3 hr prior to stimulation with serum (diluted to 10% v/v), LECM (diluted to 10% v/v), or HCM (diluted to 50% v/v) or Miami Media #1A supplemented with Sivelestat or GW311616A for 24 hr. Islets were used for immunostaining studies as described (El Ouaamari, et al., 2013).
Pancreases and islets were analyzed by immunostaining using anti-Ki67 (BD), anti-insulin (Abcam, Cambridge, Mass.), or anti-glucagon (Sigma-Aldrich, St. Louis, Mo.) antibodies. Quantification of replicating β- and α-cells was performed as described previously (El Ouaamari, et al., 2013).
In all experiments, cell counting was manually performed in a blinded fashion by a single observer. BrdU+ or Ki67+ β cells were assessed by immunofluorescence microscopy. Insulin+ cells showing nuclear DAPI staining were considered as β cells. Insulin+ cells showing nuclear colocalized staining for DAPI+ and Ki67+(or BrdU+) were counted as proliferating β cells. […]

[4] = tested on: islet β-cells; assay: Continuous infusion of Sivelestat by osmotic pump for 2 weeks, β-cell replication; assay type: in vivo, mouse; conditions: 2-week infusion
Protocol: as §1
Five to six-week old male mice were continuously infused for 2 weeks with vehicle or Sivelestat at 150 or 300 μg/kg/day. Mice were injected during the second week with BrdU (100 mg/kg Body weight) and sacrificed 5 hour after last injection of BrdU. Pancreases were harvested for morphometric studies. A-B) Representative images and quantification of nuclei BrdU+ in insulin+ cells. C-D) Representative images and quantification of nuclei pHH3+ in insulin+ cells. E-F) Representative images and quantification of nuclei BrdU+ in glucagon+ cells. […]

[5] = tested on: human (EndoC-βH1) β-cells; assay: EndoC-βH1 cells treated with Sivelestat, Ki67; assay type: cell-based; conditions: 100 μg/ml
Description: as §2

CC(C)[C@@H]1C(=O)N(S(C)(=O)=O)[C@@H]2CCN(C(=O)/C=C/CN3CCCCC3)[C@H]21.Cl [GW311616A] was tested, and the “cell proliferation in extra-pancreatic tissues (liver, skeletal muscle, visceral and subcutaneous adipose tissue, spleen, kidney)” value [1] was “not increased”, the “α-cell proliferation by BrdU incorporation” value [1] was “not α-cell proliferation” and the β-cell mass [1] was “significantly enhanced β-cell mass”. The “β-cell proliferation by BrdU incorporation” value [1] was “increased β-cell proliferation”, the “mouse islet β-cell proliferation in vitro” value [2] was “directly increased” and the “number of replicating insulin-producing cells (Ki67+ insulin+)” value [3] was “significantly higher”.

For CC(C)(C)C(=O)Oc1ccc(S(=O)(=O)Nc2ccccc2C(=O)NCC(=O)O)cc1 [Sivelestat, N-{2-[({4-[(2,2-dimethylpropanoyl)oxy]phenyl}sulfonyl)amino]benzoyl}glycine], the “mouse islet β-cell proliferation in vitro” value [2] was “directly increased”, the “number of proliferating insulin+ cells” value ([2]; higher doses, e.g. 10 and 50 μg/ml) was “substantial increase” and the β-cell proliferation ([2]; low doses 1 and 5 μg/ml) was “do not enhance β-cell proliferation”. For the same molecule, the “proliferation of glucagon-producing α-cells” value ([4]; 300 μg/kg/day) was “did not significantly alter”, the “effect on β-cells by pHH3 staining” value [4] was “confirmed by pHH3 staining” and the “number of Ki67 positive β-cells compared to non-treated cells” value [5] was “increased the number”. For the same molecule, the “number of replicating insulin-producing cells (Ki67+ insulin+)” value [3] was “significantly higher”.

B1: ovalbumin: ovalbumin (SerpinB14), control protein (protein, UniProt P01012 2-386, looked up)
Ovalbumin: GSIGAASMEFCFDVFKELKVHHANENIFYCPIAIMSALAMVYLGAKDSTRTQINKVVRFDKLPGFGDSIEAQCGTSVNVHSSLRDILNQITKPNDVYSFSLASRLYAEERYPILPEYLQCVKELYRGGLEPINFQTAADQARELINSWVESQTNGIIRNVLQPSSVDSQTAMVLVNAIVFKGLWEKAFKDEDTQAMPFRVTEQESKPVQMMYQIGLFRVASMASEKMKILELPFASGTMSMLVLLPDEVSGLEQLESIINFEKLTEWTSSNVMEERKIKVYLPRMKMEEKYNLTSVLMAMGITDVFSSSANLSGISSAESLKISQAVHAAHAEINEAGREVVGSAEAGVDAASVSEEFRADHPFLFCIKHIATNAVLFFGRCVSP
B1 was tested, and the “β-cell proliferation (Ki67)” value ([2]; 1 μg/ml) was “normal low β-cell proliferation”.

B2: SerpinB1: recombinant human SerpinB1, serine peptidase inhibitor B1, 42 kD protein (protein)
chain: MEQLSSANTRFALDLFLALSENNPAGNIFISPFSISSAMAMVFLGTRGNTAAQLSKTFHFNTVEEVHSRFQSLNADINKRGASYILKLANRLYGEKTYNFLPEFLVSTQKTYGADLASVDFQHASEDARKTINQWVKGQTEGKIPELLASGMVDNMTKLVLVNAIYFKGNWKDKFMKEATTNAPFRLNKKDRKTVKMMYQKKKFAYGYIEDLKCRVLELPYQGEELSMVILLPDDIEDESTGLKKIEEQLTLEKLHEWTKPENLDFIEVNVSLPRFKLEESYTLNSDLARLGVQDLFNSSKADLSGMSGARDIFISKIVHKSFVEVNEEGTEAAAATAGIATFCMLMPEENFTADHPFLFFIRHNSSGSILFLGRFSSP
With B2 the “concentration at which the increase reached statistical significance” value ([2]; compared to ovalbumin at a similar concentration) was 1 µg/mL and the “Ki67+ insulin+ cells” value ([2]; various doses (1 to 1000 ng/ml), 48 h) was “dose-dependent increase”.
